Data reported in US20210348164A1, “ENDOGENOUS CYTOPLASMIC ALU COMPLEMENTARY DNA IN AGE-RELATED MACULAR DEGENERATION” (University of Virginia Patent Foundation, priority 2018, published 2021).
Entries after “also recorded” stand apart in the source; their conditions may differ.

Legend:
[1] = test system: reverse transcriptase activity of cytoplasmic fractions of F9 cells; assay: In vitro reverse transcriptase activity of cytoplasmic fractions (Alu RNA-templated, Alu-specific qPCR); type: biochemical, mouse
Procedure: In vitro reverse transcriptase (RT) activity. In vitro reverse transcriptase (RT) activity in nuclear and cytoplasmic protein fractions was assessed using an Alu RNA-templated reaction. The RT reaction was carried out in a 20 μl reaction mix containing Alu RNA template (10 ng); Alu primer ([…]); dNTPs mix; cytoplasmic or nuclear protein, and Quantiscript RT Buffer (Qiagen). The reaction mixture was incubated at 42° C. for 30 minutes. The resulting cDNA was quantified by qPCR using Alu RNA template-specific primers. The reaction to evaluate self-priming activity of Alu RNA was carried out in the absence of priming oligos in a 20 μl reaction mix containing: Alu RNA with 3′-U tail; dNTP mix; cytoplasmic protein from mouse RPE cells; and Quantiscript RT Buffer (Qiagen) as described above. The resulting cDNA product was quantified by qPCR using Alu RNA template-specific primers. Alu RNA tailed on the 3′ end with chain terminator dideoxy thymidine base (ddTTP) was generated using TdT (New England Biolabs (NEB)) according to the manufacturer's instructions. Alu RNA tailed on the 3′ end with chain terminator cordycepin tri-phosphate was generated using PAP (NEB) according to the manufacturer's instructions.

[2] = test system: Alu cDNA in ARPE-19 cells; assay: Alu cDNA in ARPE-19 cells (Alu c-PCR, in situ hybridization); type: cell-based, human; settings: heat shock or DICER1 AS, in situ hybridization
Procedure: Cell culture and transfection. Primary mouse and human RPE cells were isolated as previously described (Kerur et al., 2018). All cells were maintained at 37° C. in a 5% CO2 environment. Mouse RPE cells were cultured in DMEM supplemented with 20% FBS and penicillin/streptomycin antibiotics at standard concentrations; primary human RPE cells were maintained in DMEM supplemented with 10% FBS and antibiotics. The human RPE cell line ARPE19 was cultured as previously described (Kerur et al., 2018) and maintained in DMEM-F12 containing penicillin/streptomycin, Fungizone, and gentamicin. HEK293T cells were cultured in DMEM with 10% fetal bovine serum (FBS) with 100 U/ml penicillin/streptomycin and 2 mM L-glutamine. […]
In situ hybridization. […] Visualization of fluorescein-labelled probe was performed with the TSA™ plus fluorescence system or the TSA™ plus Cy5 system (PerkinElmer). The fluorescent or Cy5 signals were detected using a Leica SP-5 or MR Nikon confocal microscope system. […]

Which results are given for “L1 siRNA: siRNA targeting L1; cholesterol-conjugated mouse L1 siRNA (SEQ ID NOs: 48 and 49) in vivo, human L1 siRNA sequences in human cells (chain 1 ACUAUUACUCUGAUACCTT; chain 2 UGUACUAAGGUCAAAUCTT; cholesterol conjugated, position not given here)”?
Alu cDNA formation from Alu RNA (reverse transcriptase activity) [1]: reduced Alu cDNA production; also recorded: reduced Alu cDNA formation; Alu cDNA induction [2]: reduced Alu cDNA formation
